ChEMBL document CHEMBL6103648, “AI-Driven Discovery of Highly Specific and Efficacious hCES2A Inhibitors for Ameliorating Irinotecan-Triggered Gut Toxicity” (J Med Chem, 2025)
The source made the active and inactive calls. The calls are words filed in the database; no cut-off is given here.

Assays:
[1] = Apparent permeability across basal to apical side in human Caco-2 cells at 25 uM incubated for 120 mins by UPLC-MS/MS analysis; type: ADME, cell-based
[2] = Sub-acute toxicity in C57BL/6J mouse assessed as change in ALB level at 100 mg/kg/day, po treated for 14 days consecutively; type: organism-based; conditions: in vivo, 336 h, time 14 day
[3] = Inhibition of human pancreatic lipase using DDAO-ol as substrate preincubated for 3 mins followed by substrate addition by fluorescence based assay
[4] = (§1) Inhibition of CES2A in human HepG2 cells using NCEN as substrate assessed as decrease in green fluorescence preincubated fir 1 hr followed by substrate addition measured after 45 mins by Hoechst33342 staining based analysis; type: cell-based
[5] = test system: HepG2; assay: as §1; type: cell-based; conditions: time 105.0 min
[6] = test system: Mus musculus; assay: Inhibition of irinotecan-triggered gut toxicity in C57BL/6J mouse bearing tumor cells assessed as decrease in DAI score at 25 to 50 mg/kg/day, po treated for 14 days; type: functional, organism-based; conditions: dose 25-50 mg/kg/day, time 14.0 day
[7] = Sub-acute toxicity in C57BL/6J mouse assessed as abnormality in stomach at 100 mg/kg/day, po treated for 14 days consecutively by H and E staining based analysis; type: organism-based; conditions: in vivo, 336 h, time 14 day
[8] = Drug distribution in deep organs of C57BL/6J mouse at 100 mg/kg, po administered as single dose measured for 0.5 to 3 hrs by UHPLC-Q-Orbitrap HRMS analysis; type: ADME, organism-based, Deep organ; conditions: in vivo, time 0.5-3 hrs
[9] = Sub-acute toxicity in C57BL/6J mouse assessed as change in ALT level at 100 mg/kg/day, po treated for 14 days consecutively; type: organism-based; conditions: in vivo, 336 h, time 14 day
[10] = Drug distribution in duodenum of C57BL/6J mouse at 100 mg/kg, po administered as single dose measured for 0.5 to 3 hrs by UHPLC-Q-Orbitrap HRMS analysis; type: ADME, organism-based; conditions: in vivo, time 0.5-3 hrs
[11] = Apparent permeability across apical to basal side in human Caco-2 cells at 100 uM incubated for 120 mins by UPLC-MS/MS analysis; type: ADME, cell-based
[12] = Efflux ratio of apparent permeability across basal to apical side over apical to basal side in human Caco-2 cells at 25 uM incubated for 120 mins by UPLC-MS/MS analysis; type: ADME, cell-based
[13] = Drug distribution in stomach of C57BL/6J mouse at 100 mg/kg, po administered as single dose measured for 0.5 to 3 hrs by UHPLC-Q-Orbitrap HRMS analysis; type: ADME, organism-based; conditions: in vivo, time 0.5-3 hrs
[14] = test system: Mus musculus; assay: Inhibition of irinotecan-induced anti-tumor activity in C57BL/6J mouse bearing tumor cells assessed as increase in tumor weight at 25 to 50 mg/kg/day, po treated for 14 days; type: functional, organism-based; conditions: dose 25-50 mg/kg/day, time 14.0 day
[15] = target: Cholinesterase (Homo sapiens, UniProt P06276); assay: Inhibition of human BuChE using BTCI as substrate incubated for 3 mins by Ellman's method
Cholinesterase, sequence (P06276 whole entry): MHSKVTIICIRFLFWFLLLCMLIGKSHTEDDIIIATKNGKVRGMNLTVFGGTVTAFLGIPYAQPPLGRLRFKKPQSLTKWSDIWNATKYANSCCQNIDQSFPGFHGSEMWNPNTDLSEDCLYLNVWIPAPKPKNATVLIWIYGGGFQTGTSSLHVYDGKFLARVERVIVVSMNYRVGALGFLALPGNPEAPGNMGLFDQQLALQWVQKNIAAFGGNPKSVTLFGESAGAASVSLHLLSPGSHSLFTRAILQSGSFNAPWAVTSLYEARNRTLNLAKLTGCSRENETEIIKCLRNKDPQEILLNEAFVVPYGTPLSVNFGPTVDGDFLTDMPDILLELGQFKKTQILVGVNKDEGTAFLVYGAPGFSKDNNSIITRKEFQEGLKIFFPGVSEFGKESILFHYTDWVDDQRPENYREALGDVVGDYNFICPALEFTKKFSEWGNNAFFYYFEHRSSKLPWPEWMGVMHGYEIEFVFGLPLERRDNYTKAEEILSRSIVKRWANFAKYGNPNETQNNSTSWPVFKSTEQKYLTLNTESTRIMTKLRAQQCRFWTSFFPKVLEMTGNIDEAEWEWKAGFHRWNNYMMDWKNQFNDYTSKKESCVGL

[16] = test system: Mus musculus; assay: Inhibition of irinotecan-triggered gut toxicity in C57BL/6J mouse bearing tumor cells assessed as decrease in serum ALT level at 25 to 50 mg/kg/day, po treated for 14 days; type: functional, organism-based; conditions: dose 25-50 mg/kg/day, time 14.0 day
[17] = Apparent permeability across apical to basal side in human Caco-2 cells at 50 uM incubated for 120 mins by UPLC-MS/MS analysis; type: ADME, cell-based
[18] = species on record: Homo sapiens; assay: Irreversible inhibition of human CES2A measured after 12 hrs by dialysis assay
[19] = test system: Mus musculus; assay: Inhibition of irinotecan-triggered gut toxicity in C57BL/6J mouse bearing tumor cells assessed as decrease in IL-6 level in colon tissue administered orally treated for 14 days; type: functional, organism-based; conditions: dose 25-50 mg/kg/day, route po, time 14.0 day
[20] = target: Cytochrome P450 3A4 (Homo sapiens, UniProt P08684); assay: Inhibition of CYP3A4 in human liver microsomes using testosterone as substrate upto 10 uM; type: ADME, Microsome
Cytochrome P450 3A4, sequence (P08684 whole entry): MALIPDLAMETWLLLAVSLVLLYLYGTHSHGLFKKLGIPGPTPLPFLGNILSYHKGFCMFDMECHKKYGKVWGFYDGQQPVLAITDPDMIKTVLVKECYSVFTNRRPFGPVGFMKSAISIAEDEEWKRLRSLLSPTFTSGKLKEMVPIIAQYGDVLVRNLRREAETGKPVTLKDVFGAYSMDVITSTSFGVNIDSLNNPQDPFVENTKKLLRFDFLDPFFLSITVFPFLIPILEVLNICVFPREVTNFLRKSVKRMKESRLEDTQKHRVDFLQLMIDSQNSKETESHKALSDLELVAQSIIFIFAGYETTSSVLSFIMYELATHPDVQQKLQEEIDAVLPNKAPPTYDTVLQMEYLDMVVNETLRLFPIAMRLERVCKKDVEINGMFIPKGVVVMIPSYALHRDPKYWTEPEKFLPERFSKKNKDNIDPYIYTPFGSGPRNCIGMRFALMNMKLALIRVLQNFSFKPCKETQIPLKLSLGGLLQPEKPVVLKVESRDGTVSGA

[21] = test system: Mus musculus; assay: Inhibition of irinotecan-triggered gut toxicity in C57BL/6J mouse bearing tumor cells assessed as decrease in serum CREA level at 25 to 50 mg/kg/day, po treated for 14 days; type: functional, organism-based; conditions: dose 25-50 mg/kg/day, time 14.0 day
[22] = Sub-acute toxicity in C57BL/6J mouse assessed as abnormality in brain at 100 mg/kg/day, po treated for 14 days consecutively by H and E staining based analysis; type: organism-based; conditions: in vivo, 336 h, time 14 day
[23] = test system: Mus musculus; assay: Inhibition of irinotecan-triggered gut toxicity in C57BL/6J mouse bearing tumor cells assessed as decrease in serum AST level at 25 to 50 mg/kg/day, po treated for 14 days; type: functional, organism-based; conditions: dose 25-50 mg/kg/day, time 14.0 day
[24] = Sub-acute toxicity in C57BL/6J mouse assessed as abnormality in kidney at 100 mg/kg/day, po treated for 14 days consecutively by H and E staining based analysis; type: organism-based; conditions: in vivo, 336 h, time 14 day
[25] = test system: Mus musculus; assay: Inhibition of irinotecan-triggered gut toxicity in C57BL/6J mouse bearing tumor cells assessed as increase in claudin-1 level in colon tissue at 25 to 50 mg/kg/day, po treated for 14 days by immunofluorescence based analysis; type: functional, organism-based; conditions: dose 25-50 mg/kg/day, time 14.0 day
[26] = Inhibition of human CES2A using fluorescein diacetate as substrate preincubated for 3 mins followed by substrate addition measured after 30 mins by fluorescence based assay
[27] = Inhibition of human CES2A incubated for 3 mins
[28] = Sub-acute toxicity in C57BL/6J mouse assessed as change in CREA level at 100 mg/kg/day, po treated for 14 days consecutively; type: organism-based; conditions: in vivo, 336 h, time 14 day
[29] = target: Acetylcholinesterase (Homo sapiens, UniProt P22303); assay: Inhibition of human AChE using ATCI as substrate incubated for 3 mins by Ellman's method
Acetylcholinesterase, sequence (P22303 whole entry): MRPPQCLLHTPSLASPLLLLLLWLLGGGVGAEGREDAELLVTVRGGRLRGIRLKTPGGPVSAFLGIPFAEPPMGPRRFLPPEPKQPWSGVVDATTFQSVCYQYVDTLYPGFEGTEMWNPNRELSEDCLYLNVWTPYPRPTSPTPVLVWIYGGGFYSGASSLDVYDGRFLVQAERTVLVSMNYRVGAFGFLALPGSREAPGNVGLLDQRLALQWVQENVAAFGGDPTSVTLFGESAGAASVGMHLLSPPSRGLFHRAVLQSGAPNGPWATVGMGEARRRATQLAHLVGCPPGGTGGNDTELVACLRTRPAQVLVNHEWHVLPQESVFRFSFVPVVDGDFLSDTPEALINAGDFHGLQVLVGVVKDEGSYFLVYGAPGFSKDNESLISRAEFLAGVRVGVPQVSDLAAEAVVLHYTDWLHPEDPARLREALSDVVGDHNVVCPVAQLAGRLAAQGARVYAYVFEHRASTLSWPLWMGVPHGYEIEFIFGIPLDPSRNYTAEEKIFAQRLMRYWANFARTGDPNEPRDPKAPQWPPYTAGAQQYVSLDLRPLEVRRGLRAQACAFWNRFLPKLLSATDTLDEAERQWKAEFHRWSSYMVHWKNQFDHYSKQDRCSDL

[30] = test system: Mus musculus; assay: Inhibition of irinotecan-triggered gut toxicity in C57BL/6J mouse bearing tumor cells assessed as decrease in TNF-alpha level in colon tissue administered orally treated for 14 days; type: functional, organism-based; conditions: dose 25-50 mg/kg/day, route po, time 14.0 day
[31] = Apparent permeability across basal to apical side in human Caco-2 cells at 100 uM incubated for 120 mins by UPLC-MS/MS analysis; type: ADME, cell-based
[32] = Apparent permeability across apical to basal side in human Caco-2 cells at 25 uM incubated for 120 mins by UPLC-MS/MS analysis; type: ADME, cell-based
[33] = Permeability across apical to basal side in human Caco-2 cells assessed as cumulative penetration amount at 50 uM incubated for 120 mins by UPLC-MS/MS analysis; type: ADME, cell-based; conditions: caco-2, 2 h
[34] = Permeability across basal to apical side in human Caco-2 cells assessed as cumulative penetration amount at 100 uM incubated for 120 mins by UPLC-MS/MS analysis; type: ADME, cell-based; conditions: caco-2, 2 h
[35] = Sub-acute toxicity in C57BL/6J mouse assessed as abnormality in heart at 100 mg/kg/day, po treated for 14 days consecutively by H and E staining based analysis; type: organism-based; conditions: in vivo, 336 h, time 14 day
[36] = test system: Mus musculus; assay: Inhibition of irinotecan-triggered gut toxicity in C57BL/6J mouse bearing tumor cells assessed as decrease in serum UREA level at 25 to 50 mg/kg/day, po treated for 14 days; type: functional, organism-based; conditions: dose 25-50 mg/kg/day, time 14.0 day
[37] = test system: Mus musculus; assay: Inhibition of irinotecan-triggered gut toxicity in C57BL/6J mouse bearing tumor cells assessed as increase in occludin level in colon tissue at 25 to 50 mg/kg/day, po treated for 14 days by immunofluorescence based analysis; type: functional, organism-based; conditions: dose 25-50 mg/kg/day, time 14.0 day
[38] = test system: Mus musculus; assay: Inhibition of irinotecan-triggered gut toxicity in C57BL/6J mouse bearing tumor cells assessed as decrease in IL-1beta level in colon tissue administered orally treated for 14 days; type: functional, organism-based; conditions: dose 25-50 mg/kg/day, route po, time 14.0 day

CCN(C)C(=O)Oc1ccc(C(=O)N2CCC(Cc3ccccc3)CC2)cc1OC
Papp B→A at 2 h, 25 µM [1]: 10.1 ×10⁻⁶ cm/s | Activity [2]: Non-toxic | IC50 [3]: > 10000 nM | IC50 [4]: 0.36 nM | inhibition [5]: Dose-dependent-effect | inhibition [6]: Active | Activity [7]: Non-toxic | Drug uptake [8]: Not_active | Activity [9]: Non-toxic | Drug uptake [10]: Active | Papp A→B at 2 h, 100 µM [11]: 11.7 ×10⁻⁶ cm/s | efflux ratio at 2 h, 25 µM [12]: 0.64 | Drug uptake [13]: Active | inhibition [14]: inactive | IC50 [15]: 3060 nM | inhibition [16]: Active | Papp A→B at 2 h, 50 µM [17]: 15.6 ×10⁻⁶ cm/s | inhibition [18]: Active | inhibition [19]: Active | inhibition (INH) [20]: Not_active | inhibition [21]: Active | Activity [22]: Non-toxic | inhibition [23]: Active | Activity [24]: Non-toxic | inhibition [25]: Active | IC50 [26]: 0.69 nM | IC50 [27]: 0.69 nM | Activity [28]: Non-toxic | IC50 [29]: > 10000 nM | inhibition [30]: Active | Papp B→A at 2 h, 100 µM [31]: 7.8 ×10⁻⁶ cm/s | Papp A→B at 2 h, 25 µM [32]: 15.7 ×10⁻⁶ cm/s | Activity [33]: 6.31 µM | Activity [34]: 6.29 µM | Activity [35]: Non-toxic | inhibition [36]: Active | inhibition [37]: Active | inhibition [38]: Active
